Type in all cases: cell-based, rat
One data set has as its system PGC-1 α. As to the kind of experiment: ELISA of PGC-1 α protein expression. Background: ELISA stands for enzyme-linked immunosorbent assay.
In data set [1] the test system is L6 muscle cells. The data set is described as follows: Cell morphology (confluence) of L6 muscle cells by microscope. The note with it: 48 hours. As for the experimental part:
(§1) Rat myoblast cell line L6 used herein was obtained from Korean Cell Line Bank. Cells were cultured until the number of cells reached 1×10^6 in T-75 flask (BD Biosciences) using DMEM (Dulbecco's Modified Eagle medium) supplemented with 4.5 g/L of D-glucose, L-glutamine, 0.11 g/L of sodium pyruvate and 10% FBS (Fetal bovine serum, Gibco; Invitrogen Corp., CA, USA). To differentiate cells, the medium with 2% HS (Horse serum, Gibco; Invitrogen Corp., CA, USA) was inoculated and the cells were incubated at 37° C. in 5% CO2 incubator (Forma scientific, Germany). The medium was replaced every 2 days and subculture was conducted every 3 to 4 days. In addition, the myoblast cells, used in this experiment, were differentiated up to 0.3×10^6 in 6 well plate (BD biosciences) before they were used. After the washing step with PBS (Gibco; Invitrogen Corp., CA, USA), the cells were used for ELISA, MTT and PCR analysis.
To compare the morphology of L6 muscle cells on the concentration of metformin, 0.5×10^5 muscle cells were seeded onto each well in 6 well plate (Falcon) and incubated at 37° C. in 5% CO2 incubator for 24 hours. 20 μM of rosuvastatin was treated and 0, 1, 10, 20, and 100 μM of metformin was treated, respectively. After 48 hours, all of them were observed using a microscope (IS-70, Olympus),

The next data set deals with Atrogin-1. The data set is described as follows: ELISA of Atrogin-1 protein expression. The conditions noted are these: as the concentration of rosuvastatin was increased. As for the experimental part:
as §1, with “analysis. […] Non-bound material was removed after washing four times with phosphate-buffered saline containing 0.2% tween 20 (PBS-T). The plate was washed 4 times with PBS buffer containing 0.2% Tween 20; and 200 μl of blocking solution (GenDEPOT) containing 1% BSA (Bovine Serum Albumin) with PBS was seeded onto each well and incubated for 2 hours at 4° C. […] Lastly, the absorbance was measured at 450 nm using an ELISA reader.” for “analysis.”

The test system of data set [2] is L6 muscle cells. The data set is described as follows: MTT assay, viability of L6 muscle cells. The note with it: 20 μM of rosuvastatin only, 48 hours. (In general: Formazan colour is commonly taken as a measure of viable cells.)
Experimental: MTT assay was carried out to determine the viability of L6 muscle cells. 1×10^4 cells were seeded onto each well in 96 well plate and incubated at 37° C. in 5% CO2 incubator for 24 hours.
20 μM of rosuvastatin was treated and 0, 1, 10, 20 and 100 μM of metformin was treated, respectively. […] Lastly, the optical density of formazan was measured at 570 nm using an ELISA Reader.
In another data set the test system is Atrogin-1 mRNA. The data set is described as follows: RT-PCR of Atrogin-1 mRNA in L6 muscle cells. The note with it: 20 μM of rosuvastatin. As for the experimental part:
as §1
To measure the mRNA level of Atrogen-1 in muscle cells depending on concentration of metformin, the cells were homogenized in 500 μl of Trizol (Invitrogen) and 3 μg of total RNA was collected using a cell scraper. […]

The results in this text go back to patent US9005636B2, “Pharmaceutical composition comprising metformin and rosuvastatin” (BCWorld Pharm Co., Ltd., priority 2009, dated 2015).

Each structure is given as a SMILES string.

Regarding `CN(C)C(=N)N=C(N)N` [metformin], the “protein level of PGC-1 α compared to negative control” value in the data set on PGC-1 α (0.1 μM of metformin) was “did not show a significant difference”. For the same compound, the “protein level of PGC-1 α” value with PGC-1 α (more than 1 μM of metformin) was “increase”. For the same compound, the “confluence of L6 cells” value in the data set with L6 muscle cells [1] (20 μM of rosuvastatin plus 1, 10, 20, 100 μM of metformin) is “increased as the concentration of metformin increased”.

Turning to `CC(C)c1nc(N(C)S(C)(=O)=O)nc(-c2ccc(F)cc2)c1/C=C/[C@@H](O)C[C@@H](O)CC(=O)O` [rosuvastatin], the “protein expression of Atrogin-1” value in the data set on Atrogin-1 is “increased”. For the same compound, the “confluence of L6 cells compared to the group without treatment” value with L6 muscle cells [1] (20 μM of rosuvastatin) was “decreased significantly”. In the data set on L6 muscle cells [2], the “viability of the cells (MTT)” value is “significant decrease”. Further, the “mRNA expression of Atrogin-1 compared to negative control” value in the data set on Atrogin-1 mRNA is listed as “increased”.
